In general, CC50 refers to the concentration giving 50% cytotoxicity.

Results on one compound are retold here after publication PMC10451668, “Natural Acetogenins, Chatenaytrienins-1, -2, -3 and -4, Mitochondrial Potential Uncouplers and Autophagy Inducers—Promising Anticancer Agents” (Antioxidants, 2023).

What all share (format): cell-based, human
A short description of series [1]: Cytotoxicity assay (7-AAD viability, flow cytometry). The conditions noted are these: human; Hek293, conditionally normal line; ± standard error of the mean, 95% CI in parenthesis. From the text: (§1) Cells, including Jurkat E6.1 (human leukemic T cell lymphoblasts, catalogue no. 88042803), K562 (human chronic myelogenous leukemia cells, catalogue no. 89121407), U937 (human histiocytic lymphoma cells, catalogue no. 85011440), HL60 (human promyelocytic leukemia cells, catalog no. 98070106), HEK293 (human embryonic kidney cells with adenovirus, catalog no. 85120602), and human lung fibroblasts Ce (catalogue no. 90011883), were purchased from the European Collection of Authenticated Cell Cultures (UK Health Security Agency) and cultured according to standard protocols using sterile techniques. […] Cells were maintained in RPMI 1640 (Jurkat, K562, U937, and HL60) and DME M (fibroblast and HEK293) (Gibco) supplemented with […] glutamine, 10% FBS (Sigma), and 100 units/mL penicillin-streptomycin (Sigma). All types of cells were grown under an atmosphere of 5% CO2 at 37 °C. The cells were subcultured at 2–3-day intervals. Cells were then seeded in 24-well plates at 5 × 10^4 cells per well and incubated overnight. Jurkat, K562, U937, HL60, HEK293, and fibroblast cells were subcultured at 2-day intervals with a seeding density of 1 × 10^5 cells per well in 24-well plates in RPMI with 10% FBS.
(§2) Viability (live/dead) assessment was performed by staining cells with 7-AAD (7-aminoactinomycin D; Biolegend). After treatment, cells were harvested, washed 1–2 times with phosphate-buffered saline (PBS), and centrifuged at 400× g for 5 min. Cell pellets were resuspended in 200 µL of flow cytometry staining buffer (PBS without Ca^2+ and Mg^2+, 2.5% FBS) and stained with […] of 7-AAD staining solution for 15 min at room temperature in the dark. Samples were assessed using the NovoCyte Penteon Flow Cytometer System (Agilent, 5301 Stevens Creek Blvd., Santa Clara, CA, USA). Detection of 7-AAD emission was collected through a 675/30 nm filter in the FL4 channel.

Series [2] deals with HL60. The description is as above. To be noted: Homo sapiens, HL-60, ± standard error of the mean, 95% CI in parenthesis.
From the text: as §1, §2

In series [3] the test system is Jurkat. The description is as above. To be noted: Homo sapiens, ± standard error of the mean, 95% CI in parenthesis.
From the text: as §1, §2

Series [4] relates to K562. Described as above. To be noted: Homo sapiens, ± standard error of the mean, 95% CI in parenthesis.
From the text: as §1, §2

Series [5] deals with U937. The series is described as above. The conditions noted are these: Homo sapiens, U-937, ± standard error of the mean, 95% CI in parenthesis.
From the text: as §1, §2

Experiment in series [6]: as above
To be noted: human; normal fibroblasts; ± standard error of the mean, 95% CI in parenthesis.

Series [7] concerns Jurkat cells. Kind of series: Detection of mitodamage: mitochondrial membrane potential and apoptosis (MitoSense Red, annexin V, 7-AAD). To be noted: compound at CC50, 4 h. From the text:
The use of reagents MitoSense Red, annexin V, and 7-AAD in the Millipore FlowCellect™ MitoDamage Kit allowed us to gain information on early, mid, and late apoptosis with one simple assay. […] After this time, the cells were dissociated using an accutase solution, stained, and analyzed using the NovoCyte Penteon Flow Cytometer System (Agilent, 5301 Stevens Creek Blvd., Santa Clara, CA, USA), according to the manufacturer’s protocols for the FlowCellect™ MitoDamage Kit and FlowCellect™ Oxidative Stress Characterization Kit (Merck).
Detection of mitochondrial potential dissipation using MitoSense Red, annexin V, and 7-AAD provided a simultaneous measurement of three important parameters of the cell state within the same cell sample: the state of the mitochondrial potential (Δψ), detected by the membrane-penetrating MitoSense Red dye; the expression of phosphatidylserine on the cell surface of apoptotic cells, assessed by the binding of annexin V to externalized phosphatidylserine; and the binding of 7-AAD to DNA in cells in the late stages of apoptosis. Multiparametric evaluation of these indicators of cell viability made it possible to determine the correlation and relationship between oxidation dissipation and phosphorylation with apoptosis.

The subject of series [8] is Jurkat tumor cell line. The series is described as follows: Assessment of cytochrome c loss (FlowCellect Cytochrome c Kit). The conditions noted are these: compound at CC50, incubation 3 h, anti-cytochrome c-FITC. As for the experimental part: Quantification of cytochrome c release from mitochondria in apoptotic cells was presented to detect the mitochondrial pathway of apoptosis in cells using flow cytometry with the FlowCellect™ Cytochrome c Kit (FCCH100110). For this, cells were treated with FITC-conjugated antibodies against cytochrome c and control anti-IgG1-FITC, together with the use of an optimized fixation procedure, permeabilization, and blocking buffer (Luminex®, USA). […] Jurkat cells were incubated for 4 h with the synthesized substances at a concentration corresponding to their 24-h CC50 in a culture plate and assessed using the NovoCyte Penteon Flow Cytometer System (Agilent, 5301 Stevens Creek Blvd., Santa Clara, CA, USA). The obtained data were processed using NovoExpress® software (ACEA).

Series [9] relates to Jurkat cells. The series is described as follows: Oxidative stress and early apoptosis (MitoSOX Red and annexin V, MitoStress Kit). To be noted: compound at CC50, 4 h, MitoSOX Red and annexin V. The source says: Changes in the mitochondrial membrane potential (ΔΨ) in Jurkat cells induced by treatment with the synthesized compounds were detected using MitoSOX Red, a positively charged probe that accumulates rapidly in mitochondria and as such can be used to detect superoxide/ROS production within mitochondria using fluorometry, microscopy, or flow cytometry. Live cells induced a low level of MitoSOX Red fluorescence, while cells with scattered mitochondrial membrane potential caused much higher MitoSOX Red fluorescence. Annexin V is a dye commonly used to detect early signs of apoptosis. […] Thus, using two different dyes, MitoSOX Red and annexin V (CF488A), in the FlowCellect™ MitoStress Kit (FCCH100109), we analyzed the mitochondrial membrane potential dissipation and associated apoptosis in Jurkat cells in response to the synthesized chatenaytrienins.
Therefore, simultaneous detection of mitochondrial superoxide generation (detected by MitoSOX Red membrane-penetrating dye) and expression of phosphatidylserine on the cell surface of apoptotic cells (assessed by binding of annexin V) in the same cell sample provides an accurate evaluation of the ability of the test compound to initiate oxidative stress in cell culture and induce apoptosis.

Series [10] deals with Jurkat cells. The series is described as follows: Assessment of autophagy (anti-LC3/FITC, flow cytometry). To be noted: 0.5 CC50, 48 h. The source says: Autophagy is involved in various physiological processes and its changes are associated with the pathogenesis of diseases such as neurodegenerative diseases, cardiovascular complications, cancer, and infectious diseases, as well as with physiological processes such as innate and specific immunity, pathogen clearance, lymphocyte selection, antigen presentation, and production of immunoglobulins. Therefore, the determination of LC3 protein inside autophagosomes without the cytosolic form of LC3-I at the stage of selective cell permeability was measured using flow cytometry. Thus, using the FlowCellect™ LC3-GFP Reporter Autophagy Assay Kit (FCCH100170 and FCCH100181), flow cytometry allowed for a rapid assay that could be combined with other phenotypic and functional markers to characterize different cell populations.
Canonical autophagy is associated with the conversion of LC3 protein (an autophagosome marker) from the cytoplasmic form of LC3I to the lipid-bound form of LC3II, which is associated with the membranes of maturing autophagosomes. The autophagy process can be conveniently classified into several stages. First, induction and translocation of the cytoplasmic LC3 protein occur due to the influence of external stimuli (adverse environmental influences)—the process is initiated by external/internal stimuli (for example, nutrient depletion or hypoxia). Then, the formation of autophagosomes begins, which are double-membrane vesicles that include the LC3 protein. This protein regulates the fusion of autophagosomes and lysosomes. It exists in two fractions—cytoplasmic LC3-I and LC3-II, isolated in the autophagosomal membrane. The LC3-II protein fraction was specified in our work, as its detection is a reliable indicator of the processes of autophagy in the cell.

In series [11] the test system is Jurkat cells. Kind of series: Cell cycle analysis (propidium iodide, Guava Cell Cycle Reagent). To be noted: compound at CC50, 48 h, control did not exceed 34.2%. On the procedure: The cell cycle was analyzed by propidium iodide staining (Guava® Cell Cycle Reagent 4500-0220). […] The cell pellet was resuspended in 200 μL of flow cytometry staining buffer (PBS without Ca^2+ and Mg^2+, 2.5% FBS). Cells were then seeded in 24-well plates at a density of 15 × 10^5 cells per well, centrifuged at 450× g for 5 min, then fixed with ice-cold 70% ethanol for 24 h at 0 °C. Before staining with propidium iodide, cells were washed with PBS and incubated with 250 µL of cell cycle detection reagent (Millipore) for 40 min at 22 °C in the dark. Samples were analyzed using the NovoCyte Penteon Flow Cytometer System (Agilent, 5301 Stevens Creek Blvd., Santa Clara, CA, USA).

On to `CCCCCCCCCCCC/C=C\CC/C=C\CC/C=C\CCCCCCCCC1=C[C@H](C)OC1=O` [compound 2, chatenaytrienin-2], for which the CC50 is 630 ± 30 nM in [1]; 130 ± 20 nM in series [2]; 120 ± 60 nM in series [3]; 180 ± 50 nM in series [4]; 120 ± 10 nM in [5]; 790 ± 20 nM in series [6]. Also, the “cells in late apoptosis (stained with 7-AAD)” value in series [7] (Jurkat) amounted to 8.44%. In addition, the “Jurkat tumor cells with the Δψ dissipation phenomenon” value in series [7] (MitoSense Red) was found to be 67.76%. Moreover, the “cells with cytochrome c released into the cytoplasm (Negative gate)” value in [8] was determined as 33.51%. For the same compound, the “cells demonstrating oxidative stress along with the marker of early apoptosis, annexin” value in [9] was 11.86%. For the same compound, the “cells with autophagy (gate M3-2)” value in [10] came to 79.96%. Also, the “percentage of cells in the S-phase” value in series [11] is reported as ~ 47%.
